Conditions: Liquid, Vibrating tube method

FC(C(F)(F)F)C(F)(F)F [1,1,1,2,3,3,3-heptafluoropropane]
Conditions	mass density [kg/m3]
303.14 K, 14797 kPa	1456.7
303.14 K, 14835 kPa	1456.8
303.14 K, 17693 kPa	1469.8
303.14 K, 21659 kPa	1486
303.14 K, 21693 kPa	1486.3
303.14 K, 21731 kPa	1486.4
303.14 K, 21764 kPa	1486.4
303.14 K, 21797 kPa	1486.6
303.14 K, 21835 kPa	1486.9
303.14 K, 21869 kPa	1486.9
303.14 K, 21906 kPa	1486.9
303.14 K, 21939 kPa	1487.2
303.14 K, 21972 kPa	1487.3
303.14 K, 22005 kPa	1487.5
303.14 K, 22039 kPa	1487.5
303.14 K, 22067 kPa	1487.7
303.14 K, 22096 kPa	1487.7
303.14 K, 22140 kPa	1487.9
303.14 K, 22178 kPa	1488.1
303.14 K, 22208 kPa	1488.1
303.14 K, 22251 kPa	1488.4
303.14 K, 22280 kPa	1488.4
303.14 K, 22361 kPa	1488.8
303.14 K, 22404 kPa	1488.9
303.14 K, 23559 kPa	1493.4
303.14 K, 23594 kPa	1493.4
303.14 K, 23621 kPa	1493.5
303.14 K, 23651 kPa	1493.8
303.14 K, 23681 kPa	1493.8
303.14 K, 26459 kPa	1504
303.14 K, 26487 kPa	1503.9
303.14 K, 26573 kPa	1504.3
303.14 K, 26602 kPa	1504.5
303.14 K, 26627 kPa	1504.5
303.14 K, 26661 kPa	1504.7
303.14 K, 26685 kPa	1504.6
303.14 K, 27097 kPa	1506
303.14 K, 27130 kPa	1506.1
303.14 K, 27159 kPa	1506.3
303.14 K, 27188 kPa	1506.5
303.14 K, 27217 kPa	1506.5
303.14 K, 27398 kPa	1507.2
303.14 K, 27427 kPa	1507.2
303.14 K, 27494 kPa	1507.5
303.14 K, 27528 kPa	1507.5
303.14 K, 27562 kPa	1507.7
303.14 K, 27605 kPa	1507.8
303.14 K, 27634 kPa	1507.9
303.14 K, 27671 kPa	1508
303.14 K, 27705 kPa	1508.1
303.14 K, 27735 kPa	1508.3
303.14 K, 27769 kPa	1508.4
303.14 K, 27803 kPa	1508.5
303.14 K, 27840 kPa	1508.4
303.14 K, 27861 kPa	1508.6
303.14 K, 27887 kPa	1508.9
303.14 K, 27917 kPa	1508.9
303.14 K, 27946 kPa	1509
303.14 K, 27976 kPa	1509.1
303.14 K, 28006 kPa	1509.2
303.14 K, 28040 kPa	1509.3
303.14 K, 28065 kPa	1509.5
303.14 K, 28095 kPa	1509.5
303.14 K, 28120 kPa	1509.6
303.14 K, 28158 kPa	1509.6
303.14 K, 28184 kPa	1509.9
303.14 K, 28206 kPa	1510
303.14 K, 28241 kPa	1510
303.14 K, 28271 kPa	1510.1
303.14 K, 28300 kPa	1510.2
303.14 K, 28330 kPa	1510.4
303.14 K, 28355 kPa	1510.5
303.14 K, 28394 kPa	1510.6
303.14 K, 31947 kPa	1522.2
303.14 K, 31984 kPa	1522.4
303.14 K, 32012 kPa	1522.5
303.14 K, 32053 kPa	1522.5
303.14 K, 32086 kPa	1522.6
303.14 K, 32123 kPa	1522.8
303.14 K, 32155 kPa	1522.9
303.14 K, 32187 kPa	1522.9
303.14 K, 32215 kPa	1523
303.14 K, 32251 kPa	1523.2
303.14 K, 32280 kPa	1523.2
303.14 K, 32322 kPa	1523.4
303.14 K, 32345 kPa	1523.3
303.14 K, 32382 kPa	1523.4
303.14 K, 32418 kPa	1523.7
303.14 K, 32449 kPa	1523.8
303.14 K, 32481 kPa	1523.9
303.14 K, 32513 kPa	1524
303.14 K, 32542 kPa	1524.1
303.14 K, 32574 kPa	1524.1
303.14 K, 32603 kPa	1524.3
303.14 K, 32646 kPa	1524.3
303.14 K, 32674 kPa	1524.4
303.14 K, 32713 kPa	1524.6
303.14 K, 32736 kPa	1524.6
303.14 K, 32764 kPa	1524.8
303.14 K, 32792 kPa	1524.9
303.14 K, 32830 kPa	1524.9
303.14 K, 32858 kPa	1525.1
303.14 K, 32887 kPa	1525.2
303.14 K, 32920 kPa	1525.2
303.14 K, 32949 kPa	1525.4
303.14 K, 32977 kPa	1525.5
303.14 K, 33020 kPa	1525.5
303.14 K, 33054 kPa	1525.6
303.14 K, 33098 kPa	1525.7
303.14 K, 33133 kPa	1525.9
303.14 K, 33172 kPa	1526
303.14 K, 33200 kPa	1526.1
303.14 K, 33239 kPa	1526.2
303.14 K, 33268 kPa	1526.3
303.14 K, 33306 kPa	1526.5
303.14 K, 33345 kPa	1526.6
303.14 K, 33378 kPa	1526.7
303.14 K, 33413 kPa	1526.7
303.14 K, 33457 kPa	1526.9
303.14 K, 33496 kPa	1527.1
303.14 K, 33537 kPa	1527.1
303.14 K, 33567 kPa	1527.3
303.14 K, 33615 kPa	1527.5
303.14 K, 33644 kPa	1527.5
303.14 K, 33683 kPa	1527.6
303.14 K, 33717 kPa	1527.8
303.14 K, 33758 kPa	1527.8
303.14 K, 33793 kPa	1527.9
303.14 K, 33838 kPa	1528
303.14 K, 33877 kPa	1528.2
303.14 K, 33912 kPa	1528.4
303.14 K, 34122 kPa	1529
303.14 K, 34158 kPa	1529
303.14 K, 34201 kPa	1529.1
303.14 K, 34250 kPa	1529.3
303.14 K, 34300 kPa	1529.4
303.14 K, 34356 kPa	1529.6
303.14 K, 34400 kPa	1529.8
303.14 K, 34442 kPa	1529.9
303.14 K, 34476 kPa	1529.9
303.14 K, 34501 kPa	1530.1
303.14 K, 34513 kPa	1530
303.14 K, 34522 kPa	1530.1
303.14 K, 34526 kPa	1530.1
303.15 K, 540 kPa	1366.5
303.15 K, 560 kPa	1366.8
303.15 K, 580 kPa	1367
303.15 K, 600 kPa	1367.1
303.15 K, 630 kPa	1367.3
303.15 K, 650 kPa	1367.5
303.15 K, 680 kPa	1367.6
303.15 K, 700 kPa	1368
303.15 K, 720 kPa	1368.1
303.15 K, 740 kPa	1368.3
303.15 K, 750 kPa	1368.5
303.15 K, 780 kPa	1368.7
303.15 K, 800 kPa	1368.9
303.15 K, 830 kPa	1369.2
303.15 K, 850 kPa	1369.3
303.15 K, 870 kPa	1369.5
303.15 K, 900 kPa	1369.8
303.15 K, 920 kPa	1369.9
303.15 K, 950 kPa	1370.1
303.15 K, 980 kPa	1370.4
303.15 K, 1000 kPa	1370.7
303.15 K, 1030 kPa	1370.9
303.15 K, 1060 kPa	1371.1
303.15 K, 1090 kPa	1371.4
303.15 K, 1110 kPa	1371.6
303.15 K, 1139 kPa	1371.8
303.15 K, 1161 kPa	1372
303.15 K, 1177 kPa	1372.1
303.15 K, 1199 kPa	1372.3
303.15 K, 1213 kPa	1372.5
303.15 K, 1250 kPa	1372.8
303.15 K, 1267 kPa	1372.9
303.15 K, 1284 kPa	1373.1
303.15 K, 1299 kPa	1373.1
303.15 K, 1317 kPa	1373.4
303.15 K, 1339 kPa	1373.5
303.15 K, 1354 kPa	1373.7
303.15 K, 1374 kPa	1373.9
303.15 K, 1395 kPa	1374.1
303.15 K, 1417 kPa	1374.2
303.15 K, 1440 kPa	1374.4
303.15 K, 1464 kPa	1374.6
303.15 K, 1481 kPa	1374.7
303.15 K, 1505 kPa	1375
303.15 K, 1522 kPa	1375
303.15 K, 1548 kPa	1375.3
303.15 K, 1568 kPa	1375.5
303.15 K, 1590 kPa	1375.6
303.15 K, 1608 kPa	1375.8
303.15 K, 1631 kPa	1375.9
303.15 K, 1645 kPa	1376.1
303.15 K, 1666 kPa	1376.5
303.15 K, 1689 kPa	1376.4
303.15 K, 1706 kPa	1376.6
303.15 K, 1732 kPa	1376.9
303.15 K, 1794 kPa	1377.4
303.15 K, 1812 kPa	1377.6
303.15 K, 1859 kPa	1377.8
303.15 K, 1883 kPa	1377.9
303.15 K, 1903 kPa	1378.3
303.15 K, 1924 kPa	1378.4

Reference: the NIST ThermoML archive (doi:10.1021/je700260f)
